System: acinic cell carcinoma of the glandula mammaria of the NZB mouse Ca 755
Assay: Antitumor activity in mice inoculated with Ca755 mammary adenocarcinoma (tumor growth kinetics, lifetime)
Format: in vivo, C57B1/6 female mice
Experimental: To investigate the antitumor activity of a new dosage form of docetaxel in the composition with PLGA 50/50 the acinic cell carcinoma of the glandula mammaria of the NZB mouse Ca 755 was chosen. As the comparison object free docetaxel substance was used. The experiments were carried out on C57B1/6 female mice with the body weight of 18-20 g.
The anti-tumor activity of the preparations under research was estimated on the basis of the comparative analysis of tumor growth kinetics and comparing the lifetime in test groups and control groups of animals.
The introduction of both the docetaxel-based prolonged-release drug and the free docetaxel was started 48 hours after tumor inoculation.

CC(=O)O[C@@]12CO[C@@H]1C[C@H](O)[C@@]1(C)C(=O)[C@H](O)C3=C(C)[C@@H](OC(=O)[C@H](O)[C@@H](NC(=O)OC(C)(C)C)c4ccccc4)C[C@@](O)([C@@H](OC(=O)c4ccccc4)[C@H]21)C3(C)C [docetaxel substance, docetaxel]
period for which tumor growth inhibition above 50% is retained (even for the dose of 20 mg/kg): ≤ 17 days | inhibiting effect upon the tumor growth (introduction started 48 hours after tumor inoculation): strong inhibiting effect
